The test addresses T1, VgEcR and RXR heterodimeric receptor (pVgRXR) with pIND/LacZ(SPI) in CHO cells (Drosophila melanogaster, UniProt P34021, E282G/G283S/G286V).
T1 construct: host or cells: CHO cells (ATCC CCL-61), transiently transfected or stably transformed with pVgRXR
T1 sequence (P34021 1-878 E282G/G283S/G286V): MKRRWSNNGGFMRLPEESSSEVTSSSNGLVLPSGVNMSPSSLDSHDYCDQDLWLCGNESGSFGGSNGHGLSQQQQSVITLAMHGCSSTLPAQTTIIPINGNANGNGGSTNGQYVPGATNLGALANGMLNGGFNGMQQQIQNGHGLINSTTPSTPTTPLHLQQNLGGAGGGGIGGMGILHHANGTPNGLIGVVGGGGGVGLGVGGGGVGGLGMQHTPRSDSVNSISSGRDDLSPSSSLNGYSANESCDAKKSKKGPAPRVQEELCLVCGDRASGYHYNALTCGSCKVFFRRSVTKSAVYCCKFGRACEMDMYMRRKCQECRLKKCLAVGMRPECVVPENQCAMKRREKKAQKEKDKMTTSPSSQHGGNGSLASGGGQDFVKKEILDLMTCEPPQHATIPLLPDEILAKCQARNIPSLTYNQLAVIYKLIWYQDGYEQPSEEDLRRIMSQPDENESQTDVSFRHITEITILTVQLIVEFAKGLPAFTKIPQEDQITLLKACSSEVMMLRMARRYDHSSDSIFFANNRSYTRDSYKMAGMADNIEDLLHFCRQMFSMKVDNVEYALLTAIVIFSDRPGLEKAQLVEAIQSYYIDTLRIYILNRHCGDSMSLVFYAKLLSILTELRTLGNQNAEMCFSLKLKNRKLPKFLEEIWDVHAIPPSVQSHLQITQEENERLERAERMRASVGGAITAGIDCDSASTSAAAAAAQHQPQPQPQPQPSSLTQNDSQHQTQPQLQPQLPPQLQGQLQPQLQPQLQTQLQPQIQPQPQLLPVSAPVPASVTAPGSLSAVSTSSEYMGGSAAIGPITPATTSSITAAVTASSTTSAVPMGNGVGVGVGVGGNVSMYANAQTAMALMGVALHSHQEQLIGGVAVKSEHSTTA
T1 sequence (P19793 1-462 partner): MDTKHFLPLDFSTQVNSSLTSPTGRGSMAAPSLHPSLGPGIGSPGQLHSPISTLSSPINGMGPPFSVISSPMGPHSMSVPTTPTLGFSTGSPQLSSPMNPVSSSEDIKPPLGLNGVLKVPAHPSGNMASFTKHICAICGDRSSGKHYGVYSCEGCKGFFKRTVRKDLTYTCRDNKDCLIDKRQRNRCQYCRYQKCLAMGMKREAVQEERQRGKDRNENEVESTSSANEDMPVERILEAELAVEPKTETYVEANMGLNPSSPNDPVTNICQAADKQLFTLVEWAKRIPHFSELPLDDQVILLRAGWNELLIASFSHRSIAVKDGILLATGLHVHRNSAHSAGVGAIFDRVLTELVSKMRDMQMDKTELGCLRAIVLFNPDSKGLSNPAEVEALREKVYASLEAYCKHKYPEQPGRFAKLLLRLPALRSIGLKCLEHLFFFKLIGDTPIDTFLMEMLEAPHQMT
The test is described as follows: β-Galactosidase gene activation in stably transformed CHO cells. In kind it is cell-based. Particulars: ligand 10 μM; for β-Galactosidase activity: average of triplicate samples, no ligand = 200; for Induction Ratio (RLU in presence and absence of the ligand): β-galactosidase. From the text:
pVgRXR (Invitrogen Corp., Carlsbad, Calif.) is an […] plasmid that expresses both VgEcR and RXR to form a modified heterodimeric nuclear receptor (see No, D., et. al., (1996) Proc. Natl. Acad. Sci. USA, 93, 3346-3351). The ecdysone receptor (VgEcR) is derived from the natural Drosophila ecdysone receptor and modified to contain the VP16 transactivation domain (see Cress, W. D., and Triezenberg, S. J. (1991), Science 251, 87-90; Sadowski, I., et. al (1988) Nature 335, 563-564; Triezenberg, S. J et. al., (1988), Genes Dev 2, 718-729; Triezenberg, S. J., et. al., (1988), Genes Dev 2, 730-742). RXR as the mammalian homologue of USP (ultraspiracle), the natural partner to the Drosophila ecdysone receptor (see Yao, T. -P., et. al., (1993), Nature 366, 476-479, Yao, T. -P., et. al., (1992), Cell 71, 63-72). The P-box region of the VgEcR DNA binding domain was modified to recognize the hybrid ecdysone response element that consists of one half-site from the gluccorticoid response element (see Umesono, K., and Evans, R. M. (1989), Cell 57, 1139-1146) and one half-site from the natural ecdysone response element. This hybrid response element reduces any possible interaction with the farsenoid X receptor that may bind the natural ecdysone responsive element (EcRE). The cytomegalovirus enhancer-promoter drives expression of VgEcR, and the Rous sarcoma virus promoter drives expression of RXR. The vector pIND (Invitrogen Corp) is a 5024 bp vector based on pcDNA3.1. It contains five hybrid E/GREs recognized by the modified ecdysone receptor expressed from pVgRXR and a minimal heat shock promoter (see Yao, T. P., et. al., (1993), Nature, 366, 476-479). pIND/lacZ (Invitrogen Crop.) is a 8170 bp plasmid that contains the β-galactosidase gene as a reporter enzyme. Cotransfection of pIND/lacZ and pVgRXR results in the induction of β-galactosidase expression upon addition of ecdysone agonists such as muristerone A. The reporter plasmid pIND/luc was constructed by subcloning the firefly luciferase gene from pGL3 (Promega/E1741) as a Nhe I-BamHI fragment into pIND, also digested with Nhe I and BamHI.
CHO cells stably transformed with pVgRXR and pIND/LacZ(SPI) (Invitrogen Crop.) were maintained in Hams F-12 media containing 10% FBS, 2 mM glutamine, 300 μg/ml Zeocin (Invitrogen Crop.) and 300 μg/ml Hygromycin B. pIND(SPI), an alternative to the pIND vector, can be induced to absolute expression levels five-fold greater than that of pIND due to the presence of 3 cis-acting SPI elements. Basal expression levels are correspondingly greater.
Stock solutions (10^−2 M) were prepared for muristerone A and the non-steroidal ligands of the present invention in ethanol and acetone respectively, and stored at −20° C. Twenty-four hours after transfection, a test compound was added at a final concentration of 10 μM (10^−5 M) to each 1 ml cell culture well. Muristerone A (Sigma, M7888) at 10 μM concentration was used as a positive control. Acetone alone was added as a negative control.
Reporter gene expression was evaluated 24-48 hours after treatment of transiently transfected cells or 24 hours after treatment of the stably transformed cell line with test ligands. β-galactosidase was assayed by either staining fixed cells or assaying for enzymatic activity in cellular lysates. β-galactosidase catalyzes the hydrolysis of the β-galactoside, X-gal (5-bromo-4-chloro-3-indolyl-β-galactopyranoside) producing a blue color within the fixed cells (Invitrogen, K1465-01) that can be visualized under a microscope. Alternatively, reporter lysis buffer (RLB; Promega/E397A) was used to lyse the cells for the detection of β-galactosidase activity using a chemiluminescent substrate, Galacto-Star (Tropix/BM100S). The cells within each 12-well plate were lysed with 250 μl of RLB. Twenty μl of each extract was assayed with 100 μl of substrate. […]

Regarding `Cc1cc(C)cc(C(=O)N(NC(=O)c2ccc3c(c2C)OCCO3)C(C)(C)C)c1` [Ligand 2], the β-Galactosidase activity is recorded as 536 RLU; the “Induction Ratio (RLU in presence and absence of the ligand)” value (shortened to “Induction Ratio”) amounted to 3.

Consider `CCc1c(OC)cccc1C(=O)NN(C(=O)c1cc(C)cc(C)c1)C(C)(C)C` [Ligand 5], for which the β-Galactosidase activity was 11599 RLU; the “Induction Ratio” value was determined as 58.

Consider `CCc1c(OC)cccc1C(=O)NN(C(=O)c1cc(Cl)cc(Cl)c1)C(C)(C)C` [Ligand 13], for which the β-Galactosidase activity amounted to 6667 RLU; the “Induction Ratio” value is listed as 33.

`CC(C)(C)N(NC(=O)c1ccccc1)C(=O)c1ccccc1` [CE-2, 1,2-dibenzoyl-1-tert-butyl-hydrazine, reference compound]: the β-Galactosidase activity came to 145 RLU; the “Induction Ratio” value is listed as 1.

For `CCc1c(OC)cccc1C(=O)NN(C(=O)c1cc(F)cc(F)c1)C(C)(C)C` [Ligand 4], the β-Galactosidase activity was determined as 1963 RLU; the “Induction Ratio” value is 10.

On to `CCc1ccc(C(=O)NN(C(=O)c2cc(C)cc(C)c2)C(C)(C)C)cc1` [CE-1, N-(4-ethylbenzoyl)-N′-(3,5-dimethylbenzoyl)-N′-tert-butyl-hydrazine, reference compound], for which the β-Galactosidase activity is 323 RLU; the “Induction Ratio” value amounted to 2.

As for `CCOc1cccc(C(=O)NN(C(=O)c2cc(C)cc(C)c2)C(C)(C)C)c1CC` [Ligand 12], the β-Galactosidase activity turned out to be 9830 RLU; the “Induction Ratio” value was 49.

Take `COc1cccc(C(=O)NN(C(=O)c2cc(C)cc(C)c2)C(C)(C)C)c1C` [Ligand 3]: the β-Galactosidase activity is given as 681 RLU; the “Induction Ratio” value turned out to be 3.

For the compound `CC(C)CC[C@@H](O)[C@](C)(O)[C@H]1CC[C@@]2(O)C3=CC(=O)[C@]4(O)C[C@@H](O)[C@@H](O)C[C@]4(C)[C@H]3[C@H](O)C[C@]12C` [CE-3, muristerone A, reference compound], the β-Galactosidase activity was 9830 RLU; the “Induction Ratio” value is 49.

With `CC(C)CC[C@@H](O)[C@](C)(O)[C@H]1CC[C@@]2(O)C3=CC(=O)[C@@H]4C[C@@H](O)[C@@H](O)C[C@]4(C)[C@H]3CC[C@]12C` [CE-4, ponasterone A, reference compound], the β-Galactosidase activity was 10386 RLU; the “Induction Ratio” value is recorded as 52.

In the case of `CCc1c(OC)cccc1C(=O)NN(C(=O)c1cccc(OC)c1)C(C)(C)C` [Ligand 1], the β-Galactosidase activity came to 1123 RLU; the “Induction Ratio” value is on record as 6.
